Measurements from PMC5675611, “GZD824 suppresses the growth of human B cell precursor acute lymphoblastic leukemia cells by inhibiting the SRC kinase and PI3K/AKT pathways” (Oncotarget, 2016).

Key:
Format in all cases: cell-based, human
NALM6 cells = assay: Annexin V apoptosis flow cytometry
Description: Human pre-B ALL cell lines NALM6 and SUPB15 were purchased from American Type Culture Collection (ATCC, Maryland, USA). All pre-B ALL cell lines were maintained in cell culture media and conditions as recommended by the ATCC. Cells were treated with GZD824 for 24 hours. GZD824 (3μM, 1μM, or 0.5μM) was used in the experiments unless otherwise noted. NALM6 and SUPB15 cells were maintained in RPMI-1640 medium (Gibco, New York, NY, USA) with 10% fetal bovine serum (Biochrom, Melbourne, Australia).
For identification of apoptotic cells among NALM6, SUPB15, and primary pre-B ALL cells, the GZD824-treated cells were stained with Annexin V Apoptosis Detection Kit (88-8007, BD ebioscience, CA, USA) according to the manufacturer's instructions (Affymetrix ebioscience, CA, USA) and then subjected to flow cytometric analysis by the Accuri™ C6 (BD Biosciences, CA, USA). For the in vitro drug sensitivity test in Figure 6A, the human CD45+ cells in spleen and bone marrow from sick mice account for over 95% of the total. We enriched human CD45+ cells in PB by MACS according to the manufacturer's instruction. After the enrichment, the purity of human CD45+ cell in PB reached 95%. The percentage of apoptotic cells was demarcated as the amount of both early and late facets of apoptosis (annexin V positive), as previously described. All data were analyzed with FlowJo software (Tree Star, Inc., Ashland, USA).

[1] = test system: STAT3 target genes (BCL-XL, CCND1, CDK4, CDKN1A); assay: qRT-PCR of STAT3 target genes; details: 3 μM, 24 hours, normalized to GAPDH, vs control
Description: Figure 5 GZD824 inhibits the SRC kinase in pre-B ALL cells A-C. Western blot analysis of […]-treated NALM6 cells. Cells were treated with DMSO, GZD824 (1μM), or GZD824 (3μM) for 24 hours. Lysates were analyzed with antibodies to (A) phospho-SRC and SRC; (B) phospho-STAT3 and STAT3; and (C) phospho-Rb, Rb, and C-Myc. D. qRT-PCR products of BCL-XL, CCND1, CDK4, and CCK[…] mRNA were normalized to GAPDH and presented as fold increase or decrease compared to control, 24 hours after treatment with 3 μM GZD824. E. NALM6 cells were treated with GZD824, SRC inhibitor (KX2-391), STAT3 inhibitor (HO-3867), or DMSO for 24 hours. Statistical analysis of Annexin V-positive cells in 3μM of drug treated NALM6 cells. All data from independent experiments are presented as mean ± SEM. Significance values: ^*P<0.05; ^**P<0.01; ^***P<0.001. RNA was extracted using TRIzol reagent (15596-026, Invitrogen, Grand Island, NY, USA), according to the manufacturer's recommended protocol. qRT-PCR was performed using Applied Biosystems StepOne and StepOne Plus Real-Time PCR Systems (Foster City, CA, USA). The experiments were repeated a minimum of three times to confirm the results.

IRS1 = assay: Western blot of NALM6 cells; details: NALM6, 1μM or 3μM, 24 hours
Description: (§1) Figure 6 GZD824 inhibits PI3K/AKT signaling in pre-B ALL cells A. […] Bars represent the mean percentages of AnnexinV+ cells in each group. B. Primary pre-B ALL cells from spleen of P#1 xenograft mouse treated with DMSO, GZD824 (1μM), IGF-1 (10ng/ML), or both. Bars represent the mean percentages of AnnexinV+ cells in each group. C. Western blot analysis of NALM6 cells. Cells were treated with DMSO, GZD824 (1μM), or GZD824 (3μM) for 24 hours. Lysates were analyzed with antibodies against IRS1, phosphate AKT, and AKT. D. Western blot analysis of primary pre-B ALL cells. Primary cells treated with GZD824 (1μM), IGF-1 (10ng/ML), or both for 24 hours. Lysates were analyzed with antibodies against Irs1, phosphate AKT, and AKT. For Western blot analysis, 30 μg of total protein extracts prepared from NALM6 or primary pre-B ALL cells from SP of PDX mice were separated on SDS-PAGE and transferred to a PVDF membrane (Bio-Rad, Hercules, CA, USA). […]

[2] = test system: phosphorylated AKT (Ser473); assay: Western blot of NALM6 cells; details: NALM6, 1μM or 3μM, 24 hours
Description: as §1

For `Cc1ccc(C(=O)Nc2ccc(CN3CCN(C)CC3)c(C(F)(F)F)c2)cc1C#Cc1cnc2[nH]ncc2c1` [GZD824], the “percentages of apoptotic cells” value (NALM6 cells; NALM6, 500 nM) was “did not increase”, the apoptotic rate (NALM6 cells; NALM6, 1μM, 24 h) was “moderate” and the “apoptosis (Annexin V-positive cells), comparison of inhibitors” value (NALM6 cells; NALM6, 3μM of drug, 24 hours, Fig 5E) was “significantly increased apoptotic level”. For the same molecule, the “cells undergoing apoptosis (AnnexinV+)” value (NALM6 cells; NALM6, 3μM, 24 h) was 74.4%, the “BCL-XL mRNA expression” value [1] was “downregulation” and the “CCKN1A (CDKN1A) mRNA expression” value [1] was “upregulated”. For the same molecule, the “CCND1 mRNA expression” value [1] was “downregulation”, the “CDK4 mRNA expression” value [1] was “downregulation” and the “levels of IRS1 protein” value (IRS1) was “reduced”. The “levels of phosphorylated AKT (Ser473)” value [2] was “reduced”.
